From paper PMC7356696, “Synthesis, Antimicrobial Activity and Molecular Docking of Novel Thiourea Derivatives Tagged with Thiadiazole, Imidazole and Triazine Moieties as Potential DNA Gyrase and Topoisomerase IV Inhibitors” (Molecules, 2020)
Values after ≈ are worked out from the molar mass of the structure shown.

Assays:
[1] = tested on: Bacillus subtilis ATCC 6633; assay: Agar well diffusion, inhibition zone; assay type: cell-based; set-up: dose or concentration left out as unconfirmed; settings: ATCC6633, B. subtilis ATCC 6633, NA = No Activity, read-out: Mean Diameter of Inhibition Zone (Mean ± SEM)
Text: (§1) The antimicrobial activity of all synthesized compounds 2–13 was screened against a panel of two Gram-positive bacteria (Staphylococcus aureus ATCC 29213 and Bacillus subtilis ATCC 6633), two Gram-negative bacteria (Escherichia coli ATCC 25922, Pseudomonas aeruginosa ATCC 27853) and two fungi (Candida albicans ATCC 10231 and Aspergillus flavus ATCC 46283) using the agar well diffusion method. Ciprofloxacin and clotrimazole were used as antibacterial and antifungal standards, respectively. The results of this study were recorded as the average diameter of the inhibition zones (IZ) in Table 1. […] Additionally, the promising activity against S. aureus was observed from compounds 9, 12 and 13, however against B. subtilis from compounds 12 and 13.
(§2) The antimicrobial assay was performed in vitro for the target compounds 2–13 against Staphylococcus aureus ATCC 29213, Bacillus subtilis ATCC 6633 as Gram-positive bacteria, Escherichia coli ATCC 25922, Pseudomonas aeruginosa ATCC 27853 as Gram-negative bacteria and Candida albicans ATCC 10231, Aspergillus flavus ATCC 46283 as fungi. At the first, 100 μL of the test bacteria/fungi were grown in 10 mL of fresh media until they reached a count of approximately 10^8 cells/ml for bacteria or 10^5 cells/mL for fungi. […] The plates were incubated for 24 h at 37 °C (for bacteria and yeast) and for 72 h at 27 °C (for filamentous fungi), each test was repeated three times. After incubation, the microorganism’s growth was observed. Ciprofloxacin and clotrimazole were used as standard antibacterial and antifungal drugs, respectively. The resulting inhibition zone diameters were measured in millimeters using the diffusion technique. […] The different concentrations (triplicate) of each compound were tested and compared with standard drugs.

[2] = tested on: Staphylococcus aureus ATCC 29213; assay: Agar well diffusion, inhibition zone; assay type: cell-based; set-up: dose or concentration left out as unconfirmed; settings: ATCC29213, S. aureus ATCC 29213, NA = No Activity, read-out: Mean Diameter of Inhibition Zone (Mean ± SEM)
Text: as §1, §2

[3] = tested on: human breast cancer (MCF-7) cells; assay: MTT assay for cytotoxic activity; assay type: cell-based; settings: Homo sapiens, MCF7, MCF-7 cells, read-out: IC50 (Mean ± SEM), cytotoxic activity
Text: (§3) The results are expressed as IC50 values (µM) and are depicted in Table 3.

[4] = MTT assay for cytotoxic activity; assay type: cell-based; settings: African green monkey, Vero cells (normal kidney epithelial cell line), read-out: IC50 (Mean ± SEM), cytotoxic activity
Text: as §3

[5] = molecular target: T1, E. coli Topoisomerase IV (Escherichia coli, UniProt P20083); assay: In vitro enzyme inhibition, topoisomerase IV decatenation kit (Inspiralis); assay type: biochemical
T1 construct: purchased Inspiralis
Experimental: (§4) This test was performed at the Confirmatory Diagnostic Unit, VACSERA, Egypt.
(§5) The screening performed against E. coli DNA gyrase B, E. coli Topoisomerase IV and dihydrofolate reductase enzymes.

[6] = tested on: Aspergillus flavus ATCC 46283; assay: Agar well diffusion, inhibition zone; assay type: cell-based; set-up: dose or concentration left out as unconfirmed; settings: ATCC46283, A. flavus ATCC 46283, NA = No Activity, read-out: Mean Diameter of Inhibition Zone (Mean ± SEM)
Text: as §1
(§6) The antimicrobial assay was performed in vitro for the target compounds 2–13 against Staphylococcus aureus ATCC 29213, Bacillus subtilis ATCC 6633 as Gram-positive bacteria, Escherichia coli ATCC 25922, Pseudomonas aeruginosa ATCC 27853 as Gram-negative bacteria and Candida albicans ATCC 10231, Aspergillus flavus ATCC 46283 as fungi. At the first, 100 μL of the test bacteria/fungi were grown in 10 mL of fresh media until they reached a count of approximately 10^8 cells/ml for bacteria or 10^5 cells/mL for fungi. […] of each sample (at 0.5 mg/mL) was added to each well (10 mm diameter holes cut in the agar gel). The plates were incubated for 24 h at 37 °C (for bacteria and yeast) and for 72 h at 27 °C (for filamentous fungi), each test was repeated three times. After incubation, the microorganism’s growth was observed. Ciprofloxacin and clotrimazole were used as standard antibacterial and antifungal drugs, respectively. The resulting inhibition zone diameters were measured in millimeters using the diffusion technique. […] The different concentrations (triplicate) of each compound were tested and compared with standard drugs.

[7] = tested on: Candida albicans ATCC 10231; assay: Agar well diffusion, inhibition zone; assay type: cell-based; set-up: dose or concentration left out as unconfirmed; settings: ATCC10231, C. albicans ATCC 10231, NA = No Activity, read-out: Mean Diameter of Inhibition Zone (Mean ± SEM)
Text: as §1, §6

[8] = tested on: Pseudomonas aeruginosa ATCC 27853; assay: Agar well diffusion, inhibition zone; assay type: cell-based; set-up: dose or concentration left out as unconfirmed; settings: ATCC27853, P. aeruginosa ATCC 27853, NA = No Activity, read-out: Mean Diameter of Inhibition Zone (Mean ± SEM)
Text: as §1, §6

[9] = tested on: Escherichia coli ATCC 25922; assay: Agar well diffusion, inhibition zone; assay type: cell-based; set-up: dose or concentration left out as unconfirmed; settings: ATCC25922, E. coli ATCC 25922, NA = No Activity, read-out: Mean Diameter of Inhibition Zone (Mean ± SEM)
Text: as §1, §6

[10] = molecular target: T2, E. coli DNA gyrase B (Escherichia coli, UniProt P0AES6); assay: In vitro enzyme inhibition, DNA gyrase microplate assay kit (Inspiralis); assay type: biochemical
T2 construct: purchased Inspiralis
Experimental: as §4, §5

[11] = tested on: Bacillus subtilis ATCC 6633; assay: MIC, modified agar well diffusion method; assay type: cell-based; settings: ATCC6633, B. subtilis ATCC 6633, read-out: MIC (Mean ± SEM)
Text: as §1, §6

[12] = tested on: Aspergillus flavus ATCC 46283; assay: MIC, modified agar well diffusion method; assay type: cell-based; settings: ATCC46283, A. flavus ATCC 46283, read-out: MIC (Mean ± SEM)
Text: as §1, §6

[13] = tested on: Staphylococcus aureus ATCC 29213; assay: MIC, modified agar well diffusion method; assay type: cell-based; settings: ATCC29213, S. aureus ATCC 29213, read-out: MIC (Mean ± SEM)
Text: as §1, §6

[14] = tested on: Candida albicans ATCC 10231; assay: MIC, modified agar well diffusion method; assay type: cell-based; settings: ATCC10231, C. albicans ATCC 10231, read-out: MIC (Mean ± SEM)
Text: as §1, §6

[15] = tested on: Pseudomonas aeruginosa ATCC 27853; assay: MIC, modified agar well diffusion method; assay type: cell-based; settings: ATCC27853, P. aeruginosa ATCC 27853, read-out: MIC (Mean ± SEM)
Text: as §1, §6

[16] = tested on: Escherichia coli ATCC 25922; assay: MIC, modified agar well diffusion method; assay type: cell-based; settings: ATCC25922, E. coli ATCC 25922, read-out: MIC (Mean ± SEM)
Text: as §1, §6

[17] = molecular target: T3, dihydrofolate reductase (DHFR) (Homo sapiens, UniProt P00374); assay: Dihydrofolate reductase inhibitor screening kit (colorimetric, BioVision); assay type: biochemical; settings: read-out: IC50 (mean ± SEM)
T3 construct: purchased Bio Vision
T3 sequence (P00374 1-187): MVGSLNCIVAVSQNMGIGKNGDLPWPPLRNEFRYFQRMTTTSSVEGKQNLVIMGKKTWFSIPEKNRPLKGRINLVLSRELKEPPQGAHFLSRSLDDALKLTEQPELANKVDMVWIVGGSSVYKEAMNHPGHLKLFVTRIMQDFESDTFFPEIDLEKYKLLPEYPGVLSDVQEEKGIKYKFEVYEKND
Experimental: as §4, §5

T1 sequence (P0AFI2 whole entry): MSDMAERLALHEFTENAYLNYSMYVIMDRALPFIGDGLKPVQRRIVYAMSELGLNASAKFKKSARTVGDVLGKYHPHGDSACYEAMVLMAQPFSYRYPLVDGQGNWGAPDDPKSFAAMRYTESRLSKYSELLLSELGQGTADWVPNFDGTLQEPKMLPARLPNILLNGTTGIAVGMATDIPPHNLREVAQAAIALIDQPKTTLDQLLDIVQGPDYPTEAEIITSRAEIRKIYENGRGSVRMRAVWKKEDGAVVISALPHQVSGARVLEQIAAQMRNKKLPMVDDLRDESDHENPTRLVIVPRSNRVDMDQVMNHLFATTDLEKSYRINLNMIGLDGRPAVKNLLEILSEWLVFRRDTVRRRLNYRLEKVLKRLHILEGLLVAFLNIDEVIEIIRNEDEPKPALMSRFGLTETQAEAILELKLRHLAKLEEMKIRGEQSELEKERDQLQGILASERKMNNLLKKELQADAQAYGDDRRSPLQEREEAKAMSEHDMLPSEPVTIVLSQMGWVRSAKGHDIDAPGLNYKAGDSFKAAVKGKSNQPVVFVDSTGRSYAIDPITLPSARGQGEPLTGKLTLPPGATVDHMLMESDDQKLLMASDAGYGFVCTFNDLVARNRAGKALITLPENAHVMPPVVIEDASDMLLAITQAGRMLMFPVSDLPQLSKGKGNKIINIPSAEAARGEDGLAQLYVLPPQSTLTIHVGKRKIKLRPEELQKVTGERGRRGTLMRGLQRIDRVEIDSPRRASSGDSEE
T1 sequence (P20083 whole entry): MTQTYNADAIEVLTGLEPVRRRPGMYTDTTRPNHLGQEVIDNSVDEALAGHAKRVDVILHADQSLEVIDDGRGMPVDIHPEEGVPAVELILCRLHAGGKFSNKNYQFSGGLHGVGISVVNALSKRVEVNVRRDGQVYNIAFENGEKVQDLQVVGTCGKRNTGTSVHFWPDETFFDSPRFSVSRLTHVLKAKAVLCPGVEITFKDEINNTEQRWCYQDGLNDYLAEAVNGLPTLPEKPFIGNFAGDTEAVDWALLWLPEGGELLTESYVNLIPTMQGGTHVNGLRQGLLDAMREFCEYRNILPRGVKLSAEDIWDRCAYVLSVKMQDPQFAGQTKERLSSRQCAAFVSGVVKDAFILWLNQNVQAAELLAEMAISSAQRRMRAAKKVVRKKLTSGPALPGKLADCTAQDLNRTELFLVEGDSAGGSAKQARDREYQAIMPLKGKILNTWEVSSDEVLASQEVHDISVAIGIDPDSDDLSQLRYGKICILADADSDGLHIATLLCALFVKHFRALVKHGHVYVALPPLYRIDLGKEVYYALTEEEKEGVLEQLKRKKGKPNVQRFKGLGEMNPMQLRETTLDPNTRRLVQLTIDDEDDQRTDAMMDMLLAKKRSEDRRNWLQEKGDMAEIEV

Molecule `N#CCC(=O)NNC(=S)NC(=O)Cc1ccccc1` [Compound 8, 1-(2-Cyanoacetyl)-4-phenylacetylthiosemicarbazide] has a zone of inhibition [1] of 42 ± 0.3 mm, a zone of inhibition [2] of 39 ± 1.21 mm and an IC50 [3] of 22.4 ± 0.36 µM. It also gave an IC50 [4] of 144.7 ± 0.36 µM, an IC50 [5] of 19.7 ± 1 µM and a zone of inhibition [6] of 27 ± 0.21 mm. The zone of inhibition [7] was 18 ± 0.05 mm, the zone of inhibition [8] was 36 ± 0.12 mm and the zone of inhibition [9] was 27 ± 0.62 mm. For the same molecule, the IC50 [10] was 0.33 µM, the MIC [11] was 1.38 ± 0.25 µg/mL (≈ 4.99 µM) and the MIC [12] was 2.11 ± 0.51 µg/mL (≈ 7.64 µM). It also gave an MIC [13] of 3.25 ± 1 µg/mL (≈ 11.8 µM), an MIC [14] of 39.8 ± 0.2 µg/mL (≈ 144 µM) and an MIC [15] of 1.25 ± 0.5 µg/mL (≈ 4.52 µM). The MIC [16] was 0.95 ± 0.22 µg/mL (≈ 3.44 µM) and the IC50 [17] was 189.5 ± 1.06 µM.
